# Patent US20220096508A1, “METHOD OF TREATMENT AND PHARMACEUTICAL DOSAGE FORM” (Aprea Therapeutics AB, priority 2019, published 2022)
# Like-named read-outs stand apart in the source and are kept apart here.
# Test system: TP53 mutant myeloid neoplasms
# Excerpt: The study, identified as NCT03072043 on clinicaltrials.gov, is a multi-institution, open-label, phase Ib/II clinical trial conducted in 2 parts: a Phase 1 b part followed by a Simon's two-stage Phase 2 design. The study assesses the safety and efficacy of APR-246 in combination with azacitidine for the treatment of TP53 mutant myeloid neoplasms. All patients were pre-screened by NGS on peripheral blood (PB) or bone marrow (BM) samples to determine TP53 mutational status and therefore eligibility to participate in this study. A PB sample was obtained prior to treatment for NGS by a central laboratory, to evaluate baseline TP53 VAF and for serial analysis.
# Treatment was administered on an outpatient basis. No investigational or commercial agents or therapies other than those described were administered with the intent to treat the patient's MDS or MDS/MPN. APR-246 was supplied by Aprea Therapeutics AB. The investigational medicinal product was a concentrate for solution, diluted with sterile 0.9% NaCl solution for infusion before administration. The solution for infusion was prepared with the prescribed dosage for each patient in accordance with the protocol and separate technical instruction.
# The initial Phase 1 b part evaluated APR-246 administered with azacitidine. Cohorts of at least 3 evaluable patients were enrolled using a modified 3+3 design. Patients received IV infusions of APR-246 as a lead-in phase on days −14 to −11, starting at Dose Level 1 (see below and in Table 1) prior to starting cycle #1 of combination therapy with azacitidine (see FIG. 1) In all cycles, APR-246 was administered as a 6-hour infusion daily for four consecutive days (study days −14 to −11 of the lead in phase and day 1 to 4 of each combination cycle). • Dose Level 1 (starting dose): APR-246 21.0 mg/kg LBM (for the first 45 min)+29 mg/kg LBM (for 5 h 15 min) on days 1 to 4. • Dose Level 2: APR-246 30.0 mg/kg LBM (for first 45 min)+45.0 mg/kg LBM (for 5 h 15 min) on days 1 to 4. • Dose Level 3: APR-246 37.0 mg/kg LBM (for first 45 min)+63.0 mg/kg LBM (for 5 h 15 min) on days 1 to 4.
# Thus, the combination therapy consisted of APR-246 on days 1-4 and azacitidine on days 4-10 of a 28-day cycle. Azacitidine was administered subcutaneously (SC) or intravenously (SC being preferred) at 75 mg/m^2 for 7 days (either for 7 consecutive days (days 4-10) or on 2+5 days (i.e. days 4-5 and 8-12)). Azacitidine was administered on day 4 at the same time as the final infusion of APR-246. Azacitidine was given following the completion of APR-246 infusion. Cohorts of at least 3 evaluable patients were enrolled using a modified 3+3 design. Patients were followed for at least 6 weeks (lead-in phase+cycle 1) before decision to dose escalation in the next cohort following a full safety assessment. The MTD was defined as the dose level below which DLT is manifested in 33% of the patients or at dose level 1 if DLT is manifested in <33% of the patients.
# Following completion of the dose finding phase described above, a dose expansion was carried out, whereby patients are treated with APR-246 administered at the MTD with azacitidine on a 28-day cycle with the same dosing schedule as in Phase Ib, with the exception of no lead in phase (i.e. patients will start at day 1 of combination therapy with APR-246 on days 1˜4 and azacitidine on days 4-10 (or days 4-5 and 8-12) of a 28-day cycle as illustrated in FIG. 1), and the exception that the recommended Phase 2 dose was modified from 100 mg/kg LBM to a fixed dose regimen of 4500 mg/patient (i.e. APR-246 administration in 2 consecutive steps as a loading dose (1500 mg for first 45 min) and a maintenance dose (3000 mg for 5 h 15 min)).
# [1] = MDS population (n=40), combination with azacitidine
# [2] = protocol-defined efficacy evaluable MDS population (n=33), combination with azacitidine
smiles,measurement,setting,value
"COCC1(CO)C(=O)C2CCN1CC2 (stereo not drawn) [APR-246, 2-hydroxymethyl-2-methoxymethyl-1-azabicyclo [2,2,2] octan-3-one]",patients able to discontinue therapy and proceed to allogeneic SCT,"MDS patients, combination with azacitidine",40%
same,CR rate,[1],50%
same,ORR,[1],73%
same,patients able to discontinue therapy and proceed to allogeneic SCT,"efficacy evaluable MDS patients, combination with azacitidine",48%
same,recommended Phase 2 dose,"human, in vivo",100 mg/kg lean body weight
same,"patients who achieved CR, Stage 1","of 24 evaluable patients at the MTD, combination with azacitidine",More than 6
same,"patients who achieved CR, Stage 2","of 45 evaluable patients, combination with azacitidine",More than 14
same,CR,[2],61%
same,ORR,[2],88%
